In patent US9346781B2, “Therapeutic compounds” (UNIVERSITY OF IOWA RESEARCH FOUNDATION, priority 2012, dated 2016):

Legend:
MDA-MB231 = test: MTT cell viability assay, MDA-MB231; assay type: cell-based; conditions: Homo sapiens, MDA-MB-231, 72 hours, read-out: IC50 (nM), antiproliferative effect
Description: (§1) FIG. 1 Illustrates results generated when HT29, A375SM, MEL624, SK-MEL-2, H1299, HCT116, Raji, HL60 and MDA-MB231 cells were treated with log-scale serial diluted concentrations of truncated superstolide A (Compound 3) from 1 to 3000 nM for 72 hours and the effect of truncated superstolide A on cell death was measured by performing a MTT assay.
(§2) Cell Viability Assay: The antiproliferative effect of compound 3 was determined by performing 3-(4,5-dimethylthiazol-2-yl)-2,5-diphenyltetrazolim (MTT) assay. Briefly, cancer cells at varying concentrations—2,000 cells/well (A375SM, MEL624 and SK-MEL-2,) and 5,000 cells/well (HT29, H1299, and HCT116, Raji, and HL-60)—were seeded onto a 96-well plate in triplicates. […] At the end of the 72 hours period, cells were treated with the MTT reagent (Sigma-Aldrich, M O) and the antiproliferative effect of compound 3 was measured as previously described (Zhou Y, Achanta G, Pelicano H, Gandhi V, Plunkett W, and Huang P (2002). Molecular Pharmacology 61:222-229). […]
(§3) The antiproliferative effect of compound 3 was evaluated in two human colon carcinoma cell lines (HT29, HCT116), three malignant melanoma cell lines (A375SM, MEL624, and SK-MEL-2), one human non-small cell lung carcinoma cell line (H1299), one lymphoma cell line (Raji), one leukemia cell line (HL-60), and one malignant breast cancer cell line (MDA-MB231) using MTT assay. […]

SK-MEL-2 = test: MTT cell viability assay, SK-MEL-2; assay type: cell-based; conditions: Homo sapiens, 72 hours, read-out: IC50 (nM), antiproliferative effect
Description: as §1, §2, §3

A375SM = test: MTT cell viability assay, A375SM; assay type: cell-based; conditions: Homo sapiens, A375-SM, 72 hours, read-out: IC50 (nM), antiproliferative effect
Description: as §1, §2, §3

[1] = system: the other eight tested cell lines; test: MTT cell viability assay, other eight tested cell lines (summary); assay type: cell-based; conditions: Homo sapiens; the other eight tested cell lines (all but HT-29); read-out: IC50 in suppressing tumor cell proliferation
Description: Cell Viability Assay: The antiproliferative effect of compound 3 was determined by performing 3-(4,5-dimethylthiazol-2-yl)-2,5-diphenyltetrazolim (MTT) assay. Briefly, cancer cells at varying concentrations—2,000 cells/well (A375SM, MEL624 and SK-MEL-2,) and 5,000 cells/well (HT29, H1299, and HCT116, Raji, and HL-60)—were seeded onto a 96-well plate in triplicates. Following an overnight incubation, the cells were treated with log-scale serially increasing concentrations of compound 3 for 72 hours at 37° C. At the end of the 72 hours period, cells were treated with the MTT reagent (Sigma-Aldrich, M O) and the antiproliferative effect of compound 3 was measured as previously described (Zhou Y, Achanta G, Pelicano H, Gandhi V, Plunkett W, and Huang P (2002). Molecular Pharmacology 61:222-229). The IC50 values correspond to a concentration of compound 3 that inhibits cell viability by 50%.
The antiproliferative effect of compound 3 was evaluated in two human colon carcinoma cell lines (HT29, HCT116), three malignant melanoma cell lines (A375SM, MEL624, and SK-MEL-2), one human non-small cell lung carcinoma cell line (H1299), one lymphoma cell line (Raji), one leukemia cell line (HL-60), and one malignant breast cancer cell line (MDA-MB231) using MTT assay. The data (MTT curves and IC50 tables) are shown in FIG. 1 and in the following Table 1.

H1299 = test: MTT cell viability assay, H1299; assay type: cell-based; conditions: Homo sapiens, NCI-H1299, 72 hours, read-out: IC50 (nM), antiproliferative effect
Description: as §1, §2, §3

MEL624 = test: MTT cell viability assay, MEL624; assay type: cell-based; conditions: 72 hours, read-out: IC50 (nM), antiproliferative effect
Description: as §1, §2, §3

HT29 = test: MTT cell viability assay, HT29; assay type: cell-based, human
Description: as §1, §2, §3

HL60 = test: MTT cell viability assay, HL60; assay type: cell-based; conditions: Homo sapiens, HL-60, 72 hours, read-out: IC50 (nM), antiproliferative effect
Description: as §1, §2, §3

HCT116 = test: MTT cell viability assay, HCT116; assay type: cell-based; conditions: Homo sapiens, HCT-116, 72 hours, read-out: IC50 (nM), antiproliferative effect
Description: as §1, §2, §3

NCI-60 cell assay = test: NCI-60 cell assay; assay type: cell-based; conditions: leukemia, non-small cell lung cancer, colon cancer, CNS cancer, melanoma, ovarian cancer, renal cancer, prostate cancer, breast cancer
Raji = test: MTT cell viability assay, Raji; assay type: cell-based; conditions: Homo sapiens, 72 hours, read-out: IC50 (nM), antiproliferative effect
Description: as §1, §2, §3

HT-29 cell = conditions: read-out: IC50, antiproliferative effect; cited from earlier work

Molecule	IC50 (MDA-MB231) [nM]	IC50 (SK-MEL-2) [nM]	IC50 (A375SM) [nM]	IC50 [1] [nM]	IC50 (H1299) [nM]	IC50 (MEL624) [nM]	potency in suppressing tumor cell proliferation relative to superstolide A (HT29; HT-29 cell, versus parent natural product superstolide A)	IC50 (HT29; Homo sapiens, HT-29, HT29, 72 hours, MTT assay, read-out: IC50 (nM), antiproliferative effect) [nM]	IC50 (HL60) [nM]	IC50 (HCT116) [nM]	activity in NCI-60 cell assay (NCI-60 cell assay)	IC50 (Raji) [nM]	IC50 (HT-29 cell) [nM]
CC(=O)N[C@H](C)[C@@H](O)[C@@H](C)[C@@H]1OC(=O)/C=C/C=C(C)\C=C\[C@]2(C)CCC=C[C@@H]2/C=C(C)/C=C/[C@H]1C [Compound 3]	18	63.8	36.5	10 to 70	56.8	53.1	about seven times more potent	7.54	11.8	52.7	active	76.7	
superstolide A													64
